Measured values from patent US20060106078A1, “Prostamide receptor antagonists” (Allergan, Inc., priority 2003, published 2006).

How the values were obtained:
Type in all cases: cell-based
[1] = system: cat iris sphincter (prostamide F2α response); assay: Cat iris sphincter contraction: antagonism of prostamide F2α response; settings: isolated cat iris sphincter, contractile response relative to 1×10^−7 M PGF2α, 30 min antagonist incubation; FIG. 1, FIG. 2
Protocol: (§1) The compounds of Examples 1 and 2 were tested for prostamide antagonist activity as follows:
(§2) The smooth muscle tension of isolated tissue preparations was measured isometrically with force displacement transducers (Grass FT-03) and recorded on a Grass polygraph (Model 7G). The organ baths contained Krebs solution maintained at 37° C. and gassed with 95% O2: 5% CO2 to give a pH of 7.4. The Krebs solution had the following composition (mM): NaCl, 118.0; KCl, 4.7; KH2PO4, 1.2; CaCl2, 1.9; MgSO4, 1.18; NaHCO3, 25.0; glucose, 11.7; indomethacin, 0.001.
(§3) Adult domestic cats were sacrificed by intravenous overdose of sodium pentobarbitol (Anthony, Arcadia, Calif., USA). The eyes were enucleated immediately and placed on ice. The iris sphincter from each eye was dissected to provide two strips ˜3 mm wide and 15-20 mm long. The sphincter muscle was mounted vertically under 50 mg tension in a jacketed 10 ml organ bath. A 60 min. equilibration period was allowed before commencing each experiment. The response to 1×10^−7 M PGF2α was determined at the beginning of each experiment as a reference. After complete washout, and return to baseline tension, tissues were allowed to re-equilibrate for 30 min. Antagonist or vehicle were then added. […] Activity of test compounds was determined as contractile responses and expressed relative to the reference standard 1×10^−7 M PGF2α.

[2] = system: cat iris sphincter (PGD2 response); assay: Cat iris sphincter contraction: effect on PGD2 response; settings: isolated cat iris sphincter, contractile response relative to 1×10^−7 M PGF2α, 30 min antagonist incubation; FIG. 3
Protocol: as §1, §2, §3

[3] = system: cat iris sphincter (prostamide E2 response); assay: Cat iris sphincter contraction: antagonism of prostamide E2 response; settings: isolated cat iris sphincter, contractile response relative to 1×10^−7 M PGF2α, 30 min antagonist incubation; FIG. 4
Protocol: as §1, §2, §3

[4] = system: cat iris sphincter (PGF2α response); assay: Cat iris sphincter contraction: effect on PGF2α response; settings: isolated cat iris sphincter, contractile response relative to 1×10^−7 M PGF2α, 30 min antagonist incubation; FIG. 1, FIG. 2
Protocol: as §1, §2, §3

[5] = system: cat iris sphincter (prostamide D2 response); assay: Cat iris sphincter contraction: antagonism of prostamide D2 response; settings: isolated cat iris sphincter, contractile response relative to 1×10^−7 M PGF2α, 30 min antagonist incubation; FIG. 3
Protocol: as §1, §2, §3

[6] = system: cat iris sphincter (PGE2 response); assay: Cat iris sphincter contraction: effect on PGE2 response; settings: isolated cat iris sphincter, contractile response relative to 1×10^−7 M PGF2α, 30 min antagonist incubation; FIG. 4
Protocol: as §1, §2, §3

Row | Compound | prostamide F2α antagonist activity (effect on response curve of prostamide F2α) [1] | effect on response curve of PGD2 [2] | prostamide E2 antagonist activity (effect on response curve of prostamide E2) [3] | effect on response curve of PGF2α [4] | prostamide D2 antagonist activity (effect on response curve of prostamide D2) [5] | effect on response curve of PGE2 [6]
1 | CCNC(=O)CCc1ccc(F)cc1CC1C2CCC(O2)C1c1nc(C(=O)NCCCCC2CCCCC2)co1 (centres unmarked) [Example 1, 2-{3-[2-(2-Ethylcarbamoyl-ethyl)-5-fluoro-benzyl]-7-oxa-bicyclo[2.2.1]hept-2-yl}-oxazole-4-carboxylic acid (4-cyclohexyl-butyl)-amide] | displaces the response curve | does not effect the response curve | displaces the response curve | does not effect the response curve | displaces the response curve | does not effect the response curve
2 | O=C(CCc1ccc(F)cc1CC1C2CCC(O2)C1c1nc(C(=O)NCCCCC2CCCCC2)co1)NCCO (centres unmarked) [Example 2, 2-(3-{5-Fluoro-2-[2-(2-hydroxy-ethycarbamoyl)-ethyl]-benzyl}-7-oxa-bicyclo[2.2.1]hept-2-yl)-oxazole-4-carboxylic acid (4-cyclohexyl-butyl)-amide] | displaces the response curve | – | – | does not effect the response curve | – | –
